This is an account of results in patent US20170105981A1, “METHODS FOR STABILIZING HYPOXIA INDUCIBLE FACTOR-2 ALPHA AS A METHOD FOR TREATING CANCER” (The Ohio State Innovation Foundation, priority 2011, published 2017).

Experiment [1] concerns A375 human melanoma cells. The experiment is described as follows: A375 human melanoma tumors in SCID mice. The experiment is classed as in vivo. As to conditions: at the time of sacrifice; stabilizer 17 mg/kg, docetaxel 1 mg/kg, IP 3 times per week. Here is the method:
6-8-week-old C57BL/6 mice or SCID mice were injected with 1×10^5 B16F10 murine melanoma cells or 1×10^6 A375 human melanoma cells, respectively, subcutaneously on the left flank. […] Tumor diameters were measured 3 times per week with calipers, and tumor volumes will be calculated as follows: Tumor volume=0.5×[(large diameter)×(small diameter)^2].
In the study, immunocompromised SCID mice were inoculated with A375 human melanoma tumors subcutaneously. Starting when the tumors became palpable (7 days after injection), mice were treated with either the cytotoxic chemotherapy docetaxel or with the disclosed HIF-2α stabilizer. The disclosed HIF-2α stabilizer was given at a dose of 17 mg/kg, and the docetaxel was given at 1 mg/kg. Both drugs were given IP 3 times per week. […] At the time of sacrifice, the tumors in the mice that received only the disclosed HIF-2α stabilizer were approximately 78% of the size of the control tumors, the tumors of the mice that received only chemotherapy were approximately 50% of the size of the control tumors, and the tumors of the mice that received both drugs were approximately 16% of the size of the control tumors.

Experiment [2] concerns B16F10 murine melanoma cells. Briefly: Murine melanoma tumor model (B16F10 in C57BL/6 mice). The experiment is classed as in vivo. Here is the method: Mice were injected with 1×10^5 B16F10 murine melanoma cells murine subcutaneously on the left flank. Once tumors become palpable (approximately 5 days), mice were randomly allocated to receive treatment with either: 20% polyethylene glycol (PEG) in 5% […] (vehicle control for the disclosed HIF-2α stabilizer) and PBS (vehicle control for GM-CSF), 20% PEG and GM-CSF (100 ng per mouse in a 50 μL volume), the disclosed HIF-2α stabilizer (17.5 mg/kg in a 100 μL volume) and PBS, or the disclosed HIF-2α stabilizer and GM-CSF (same doses). The PBS and GM-CSF were administered intratumorally, while the 20% PEG and the disclosed HIF-2α stabilizer were administered intraperitoneally. Mice were treated 3 times per week until tumors reached a size of 20 mm in any dimension (approximately 2.5 weeks), at which point mice were euthanized, in accordance with institutional policy. Tumor diameters were measured 3 times per week with calipers, and tumor volumes were calculated as follows: Tumor volume=0.5×[(large diameter)×(small diameter)^2].
6-8-week-old C57BL/6 mice were injected with 1×10^5 B16F10 murine melanoma cells murine subcutaneously on the left flank. Once tumors become palpable (approximately 5 days), mice were randomly allocated to receive treatment with either: 20% PEG-400 in 5% sucrose (vehicle for disclosed HIF-2α stabilizer) and PBS (vehicle for GM-CSF), 20% PEG-400 and GM-CSF (100 ng per mouse in a 50 μL volume), disclosed HIF-2α stabilizer (17.5 mg/kg mouse weight in a 100 μL volume) and PBS, or the disclosed HIF-2α stabilizer and GM-CSF (same concentrations). The disclosed HIF-2α stabilizer (or the vehicle control) was administered intraperitoneally, while GM-CSF (or the vehicle control) was administered intratumorally. Mice were treated […] 3 times per week until tumors reached a size of 20 mm in any dimension (approximately 2.5 weeks), at which point mice were be euthanized, in accordance with institutional policy. Tumor diameters were measured 3 times per week with calipers, and tumor volumes will be calculated as follows: Tumor volume=0.5×[(large diameter)×(small diameter)^2]. For experiments analyzing the effect of neutralizing sVEGFR-1 in combination with disclosed HIF-2α stabilizer treatment, mice were treated intraperitoneally 3×/week with either disclosed HIF-2α stabilizer or vehicle control, and intratumorally with either 4 μg anti-VEGFR-1 neutralizing antibody (R&D Systems) or 4 μg polyclonal goat IgG isotype control (Santa Cruz Biotechnology) in a 50 μL volume. All protocols were approved by the Ohio State University Animal Care and Use Committee, and mice were treated in accordance with institutional guidelines for animal care.
The ANOVA test was used to compare independent measurements between multiple treatment groups. The data was log-transformed to normalize the variance across groups. P-values were adjusted using the Holm's procedure to conserve the type I error at 0.05 due to the multiple comparisons. For tumor growth data, changes in tumor volume over time were assessed via a longitudinal model. Tumor values were log-transformed, and estimated slopes (changes in tumor volume over time) were calculated with 95% confidence intervals. Estimated differences in tumor volume were calculated by a random-effects regression of the longitudinal data. For all analyses, p≦0.05 was considered statistically significant.
6-8-week-old C57BL/6 mice or SCID mice were injected with 1×10^5 B16F10 murine melanoma cells or 1×10^6 A375 human melanoma cells, respectively, subcutaneously on the left flank. […]

The subject of another experiment is sVEGFR-1. The experiment is described as follows: sVEGFR-1 production by human peripheral blood monocytes (ELISA, real-time PCR). The experiment is classed as cell-based. The conditions noted are these: monocytes stimulated with GM-CSF alone; FIG. 11D. Here is the method:
(§1) Human peripheral blood mononuclear cells (PBMCs) were isolated from fresh peripheral blood leukocyte source packs (American Red Cross, Columbus Ohio) by density gradient centrifugation over Lymphocyte Separation Medium (Cellgro). Monocytes were purified from total PBMCs by layering over FBS. Monocytes were cultured in endotoxin-free RPMI-1640 supplemented with 1% fetal bovine serum (FBS), 0.1% human serum albumin (HSA), and 10 μg/mL of the endotoxin inhibitor polymyxin B. In some experiments, freshly isolated monocytes were differentiated into macrophages by three-day culture in media containing 10% FBS, 1% PSA (penicillin G sodium, streptomycin sulfate, and amphotericin B), and 20 ng/mL M-CSF. Macrophages were serum-starved for 2 hours prior to stimulation. Monocytes or monocyte-derived macrophages were treated for 24 hours with 10 ng/mL GM-CSF, 10 μM disclosed HIF-2α stabilizer, or an equivalent volume of the vehicle controls (PBS or DMSO, respectively). Cell-free culture supematants were harvested and analyzed for VEGF or sVEGFR-1 by ELISA (R&D Systems).
(§2) Human monocytes were left untreated or were stimulated with 100 ng/mL GM-CSF at normoxia or at 0.5% O2. At various time-points, cells were harvested in Trizol reagent (Invitrogen) and RNA was extracted in chloroform and then purified using the RNeasy Minikit (Qiagen). In murine studies, organs harvested at the time of euthanasia were flash-frozen in liquid nitrogen, pulverized in liquid nitrogen, and then dissolved in Trizol. cDNA was generated from 1 μg of RNA using the Superscript First Strand Synthesis System (Invitrogen) and used for real-time PCR using previously described primers and SYBR Green PCR Master Mix (Applied Biosciences), according to the manufacturer's instructions. Data were analyzed according to the comparative threshold method and normalized against the β-actin internal control transcript. Results are semi-quantitative and represent the fold difference in transcript levels in a particular sample as compared with levels in untreated cells from the same donor.

The subject of the next experiment is VEGF. Briefly: VEGF production by human peripheral blood monocytes (ELISA, real-time PCR). The experiment is classed as cell-based. As to conditions: FIG. 11C. As for the experimental part: as §1
as §2, with “donor. […]” for “donor.”

A further experiment relates to VEGF mRNA. The experiment is described as follows: Real-time PCR of VEGF mRNA within B16F10 tumors. The experiment is classed as in vivo, mice. As to conditions: p=0.490, FIG. 13B. As for the experimental part: as §2
6-8-week-old C57BL/6 mice were injected with 1×10^5 B16F10 murine melanoma cells murine subcutaneously on the left flank. […] Tumor diameters were measured 3 times per week with calipers, and tumor volumes will be calculated as follows: Tumor volume=0.5×[(large diameter)×(small diameter)^2]. […]

`CC(=O)O[C@@]12CO[C@@H]1C[C@H](O)[C@@]1(C)C(=O)[C@H](O)C3=C(C)[C@@H](OC(=O)[C@H](O)[C@@H](NC(=O)OC(C)(C)C)c4ccccc4)C[C@@](O)([C@@H](OC(=O)c4ccccc4)[C@H]21)C3(C)C` [docetaxel, reference compound]: in experiment [1], the “tumor size as % of the size of the control tumors” value is on record as “approximately 50%”.
As to “GM-CSF: granulocyte-macrophage colony-stimulating factor”, the “tumor volume reduction, GM-CSF given I.T. vs I.P.” value in experiment [2] (B16F10 melanoma, stabilizer 17 mg/kg I.P. in all cases, no control group, FIG. 4) is reported as “greater reduction of tumor volume”. In addition, the “tumor growth / tumor volume” value in experiment [2] (B16F10 melanoma, stabilizer 17 mg/kg I.P., GM-CSF I.T., vs PBS control, FIG. 3) is “reduction in tumor volume”. The “average tumor volumes vs vehicle controls” value in experiment [2] (day 16 of treatment, 3×/week, GM-CSF 100 ng/mouse intratumoral, stabilizer 17.5 mg/kg intraperitoneal, each p<0.001) is reported as “significantly smaller”. Moreover, in the experiment with sVEGFR-1, the “monocyte production of sVEGFR-1” value is given as “induced”. In addition, the “VEGF protein in supernatants (free VEGF ELISA)” value in the experiment on VEGF (GM-CSF-stimulated monocytes, VEGF neutralized by sVEGFR-1) is given as “undetectable”. The VEGF transcript levels result in the experiment on VEGF (monocytes stimulated with GM-CSF alone) is “increased VEGF production”. Besides, in the experiment on VEGF mRNA, the “levels of intratumoral VEGF vs vehicle control-treated mice” value is “failed to increase”.
